Experimental data as given in ChEMBL document CHEMBL5505979, “Novel aminothiazoximone-corbelled ethoxycarbonylpyrimidones with antibiofilm activity to conquer Gram-negative bacteria through potential multitargeting effects” (Eur J Med Chem, 2024).
Converted amounts (≈) assume the structure as drawn. The source made the active and inactive calls. No cut-off for these calls is given here.

Experiments:
Escherichia coli [1] = assay: Bactericidal activity against Escherichia coli ATCC 25922 assessed as bacterial killing at 1 to 8 times of MIC concentration measured upto 8 hrs by time-kill kinetics assay; type: functional, organism-based
Acinetobacter baumannii [2] = assay: Reduction of biofilm virulent factors in Acinetobacter baumannii assessed as decrease in extracellular polymeric substances (EPS) by measuring optical density at 490 nm at 1/2 times of MIC concentration by congo red binding assay (reference value: 0.188 to 0.192); type: functional
Escherichia coli [3] = assay: Anti-bacterial activity against Escherichia coli ATCC 25922 assessed as growth inhibition by measuring optical density measured at 4 time of MIC in presence of 1/4 times of MIC of norfloxacin by Checkerboard assay (reference value: 0.125); type: functional
Escherichia coli [4] = assay: Anti-bacterial activity against Escherichia coli ATCC 25922 assessed as growth inhibition by measuring optical density measured at 1 time of MIC in presence of 1/2 times of MIC of norfloxacin by Checkerboard assay (reference value: 0.125); type: functional
Escherichia coli [5] = assay: Anti-bacterial activity against Escherichia coli ATCC 25922 assessed as growth inhibition by measuring optical density measured at 1/2 time of MIC in presence of 2 times of MIC of norfloxacin by Checkerboard assay (reference value: 0.124); type: functional
Escherichia coli [6] = assay: Reduction of biofilm virulent factors in Escherichia coli ATCC 25922 assessed as decrease in extracellular polymeric substances (EPS) at 4 times of MIC concentration by congo red binding assay relative to control; type: functional; parameters: scale not given: the % may be the effect or the level left
Acinetobacter baumannii [7] = assay: Anti-bacterial activity against Acinetobacter baumannii assessed as growth inhibition by measuring optical density measured at 4 time of MIC in presence of 2 times of MIC of norfloxacin by Checkerboard assay (reference value: 0.152); type: functional
Acinetobacter baumannii [8] = assay: Antibiofilm activity against Acinetobacter baumannii assessed as inhibition rate of bio-film formation at 0.5 times of MIC concentration by Crystal violet assay relative to control; type: functional
Enterococcus faecalis = assay: Anti-bacterial activity against Enterococcus faecalis V583 assessed as inhibition of bacterial growth; type: functional
Acinetobacter baumannii [9] = assay: Anti-bacterial activity against Acinetobacter baumannii assessed as growth inhibition by measuring optical density measured at 4 time of MIC in presence of 1/2 times of MIC of norfloxacin by Checkerboard assay (reference value: 0.152); type: functional
Pseudomonas aeruginosa = assay: Anti-bacterial activity against Pseudomonas aeruginosa ST235 assessed as inhibition of bacterial growth; type: functional; settings: Pseudomonas aeruginosa, ST235; read-out: MIC
Acinetobacter baumannii [10] = assay: Antibiofilm activity against Acinetobacter baumannii assessed as reduction of self-aggregation; type: functional, organism-based
Candida tropicalis = assay: Anti-fungal activity against Candida tropicalis assessed as inhibition of fungal growth; type: functional; settings: Candida tropicalis; read-out: MIC
Escherichia coli [11] = assay: Reduction in metabolic activity of Escherichia coli ATCC 25922 assessed as biomass of the fluorescent pink change to non-fluorescent blue; type: functional, organism-based
Escherichia coli [12] = assay: Anti-bacterial activity against Escherichia coli ATCC 25922 assessed as growth inhibition by measuring optical density measured at 1/4 time of MIC in presence of 1 times of MIC of norfloxacin by Checkerboard assay (reference value: 0.128); type: functional
Escherichia coli [13] = assay: Anti-bacterial activity against Escherichia coli ATCC 25922 assessed as growth inhibition by measuring optical density measured at 4 time of MIC in presence of 1/8 times of MIC of norfloxacin by Checkerboard assay (reference value: 0.125); type: functional
Acinetobacter baumannii [14] = assay: Anti-bacterial activity against Acinetobacter baumannii assessed as growth inhibition by measuring optical density measured at 2 time of MIC in presence of 2 times of MIC of norfloxacin by Checkerboard assay (reference value: 0.155); type: functional
Candida albicans = assay: Anti-fungal activity against Candida albicans 90023 assessed as inhibition of fungal growth; type: functional
Acinetobacter baumannii [15] = assay: Reduction in metabolic activity of Acinetobacter baumannii assessed as biomass of the fluorescent pink change to non-fluorescent blue; type: functional, organism-based
Cell membrane = assay: Induction of membrane damage in Acinetobacter baumannii assessed as increase in fluorescence intensity at 1 to 4 times of MIC concentration measured after 90 mins by DiSC3 fluorescent probe assay; type: cell membranes
Escherichia coli [16] = assay: Induction of membrane depolarization Escherichia coli ATCC 25922 assessed as increase in red fluorescence intensity at 0.5 to 8 times of MIC concentration measured after 6 hrs by […] assay; type: functional, organism-based
Calf thymus DNA = assay: Binding affinity to calf thymus DNA assessed as decrease in fluorescence intensity at 530 nm by Acridine Orange based fluorescence spectroscopy; type: nucleic-acid assay; settings: Bos taurus
Acinetobacter baumannii [17] = assay: Induction of ROS accumulation in Acinetobacter baumannii assessed as decrease in GSH activity by measuring reduced GSH to convert to oxidized GSSG at 1/4 to 2 times of MIC by Ellmans method; type: functional, organism-based
Escherichia coli [18] = assay: Anti-bacterial activity against Escherichia coli ATCC 25922 assessed as growth inhibition by measuring optical density measured at 1/4 time of MIC in presence of 1/4 times of MIC of norfloxacin by Checkerboard assay (reference value: 0.128); type: functional
[19] = Hemolysis in human RBC assessed as hemolysis rate at 128 times of MIC concentration for 6 hrs; type: toxicity, cell-based, Erythrocyte; settings: red blood cells, read-out: Activity
Escherichia coli [20] = assay: Anti-bacterial activity against Escherichia coli ATCC 25922 assessed as inhibition of bacterial growth measured upto 9 hrs; type: functional, organism-based
Acinetobacter baumannii [21] = assay: Anti-bacterial activity against Acinetobacter baumannii assessed as fractional inhibitory concentration index measured upto 9 hrs in presence of norfloxacin; type: functional
[22] = Cytotoxicity against human L02 cells assessed as cell viability at effective concentration measured after 24 hrs; type: toxicity, cell-based; settings: read-out: Activity
Candida parapsilosis = assay: Anti-fungal activity against Candida parapsilosis assessed as inhibition of fungal growth; type: functional; settings: Lodderomyces parapsilosis; read-out: MIC
Acinetobacter baumannii [23] = assay: Anti-bacterial activity against Acinetobacter baumannii assessed as growth inhibition by measuring optical density measured at 1/4 time of MIC in presence of 1 times of MIC of norfloxacin by Checkerboard assay (reference value: 0.152); type: functional
Escherichia coli [24] = assay: Anti-bacterial activity against Escherichia coli ATCC 25922 assessed as growth inhibition by measuring optical density measured at 4 time of MIC in presence of 1 times of MIC of norfloxacin by Checkerboard assay (reference value: 0.125); type: functional
Escherichia coli [25] = assay: Antibiofilm activity against Escherichia coli ATCC 25922 assessed as inhibition rate of bio-film formation at 8 times of MIC concentration in presence of sodium dodecyl sulfate by Crystal violet assay relative to control; type: functional, organism-based
Escherichia coli [26] = assay: Anti-bacterial activity against Escherichia coli ATCC 25922 assessed as inhibition of bacterial growth measured after 20 passages at sub-MIC concentration by multiple resistance study; type: functional, organism-based
Escherichia coli [27] = assay: Reduction in metabolic activity of Escherichia coli ATCC 25922 assessed as decrease in bacterial lactate dehydrogenase activity at 0.5 to 8 times of MIC concentration; type: functional, organism-based
Acinetobacter baumannii [28] = assay: Induction of intracellular ROS accumulation in Acinetobacter baumannii assessed as fluorescence intensity at 1/4 to 2 times of MIC by DCFH-DA staining based assay; type: functional, organism-based
Staphylococcus aureus = assay: Anti-bacterial activity against Staphylococcus aureus ATCC 12600 assessed as inhibition of bacterial growth; type: functional; settings: Staphylococcus aureus, ATCC 12600; read-out: MIC

CCCCc1nc(Cl)c(C2NC(=O)NC(CN3CCN(C(=O)/C(=N/OC)c4csc(N)n4)CC3)=C2C(=O)OCC)[nH]1 (stereo unspecified)
Activity (Escherichia coli [1]): Active
OD (Acinetobacter baumannii [2]): 0.173
OD (Escherichia coli [3]): 0.051
OD (Escherichia coli [4]): 0.096
OD (Escherichia coli [5]): 0.051
Activity (Escherichia coli [6]): 52.3%
OD (Acinetobacter baumannii [7]): 0.051
inhibition (INH) (Acinetobacter baumannii [8]): 23.5%
MIC (Enterococcus faecalis): 13 µM (≈ 7.91 µg/mL)
OD (Acinetobacter baumannii [9]): 0.05
MIC (Pseudomonas aeruginosa): 26 µM (≈ 15.8 µg/mL)
Activity (Acinetobacter baumannii [10]): Dose-Dependent Effect
MIC (Candida tropicalis): 53 µM (≈ 32.2 µg/mL)
Activity (Escherichia coli [11]): Active
OD (Escherichia coli [12]): 0.112
OD (Escherichia coli [13]): 0.108
OD (Acinetobacter baumannii [14]): 0.051
MIC (Candida albicans): 53 µM (≈ 32.2 µg/mL)
Activity (Acinetobacter baumannii [15]): Active
Activity (Cell membrane): inactive
Activity (Escherichia coli [16]): Active
Activity (Calf thymus DNA): Active
Activity (Acinetobacter baumannii [17]): Active
OD (Escherichia coli [18]): 0.127
hemolysis at 6 h, 128 x MIC [19]: 0.8%
Activity (Escherichia coli [20]): Dose-Dependent Effect
fractional inhibitory concentration index (FICI) (Acinetobacter baumannii [21]): 0.75
viability at 24 h [22]: > 95%
MIC (Candida parapsilosis): 422 µM (≈ 257 µg/mL)
OD (Acinetobacter baumannii [23]): 0.112
OD (Escherichia coli [24]): 0.051
Activity (Escherichia coli [25]): Active
Activity (Escherichia coli [26]): Active
Activity (Escherichia coli [27]): Active
Activity (Acinetobacter baumannii [28]): Active
MIC (Staphylococcus aureus): 7 µM (≈ 4.26 µg/mL)
